Test results reported in patent publication US20250186452A1, “NOVEL USE OF QUINOLINE COMPOUND” (TARAPEUTICS SCIENCE INC., priority 2022, published 2025).

Assays:
[1] = system: RAW264.7 cells; test: Cell transformation experiment: IL-10 secretion of M2-induced RAW264.7 cells (ELISA); assay type: cell-based, mouse
Experimental: RAW264.7 cells (purchased from ATCC, USA) were sucked up and down with a pipette, and the cells were added to a centrifuge tube, placed in a centrifuge, and centrifuged at 800 rpm for 4 minutes.

[2] = system: 4T1 cells; test: In vivo efficacy in 4T1 cell tumor transplantation mouse model; details: 4T1 model
Experimental: (§1) In this example, the experimental effects of Compound 2 and the control compound PLX3397 (purchased from MedChem Express, China) in MC38 and 4T1 mouse models were tested respectively.
(§2) The experimental procedure was as follows: • (1) C57BL/6J male mice for use as MC38 transplanted tumor model and Balb/c male mice for use as 4T1 transplanted tumor model, which were 6 weeks old, were purchased from GemPharmatech Co., Ltd, Jiangsu. All the above mice were raised in an SPF laboratory, and the drinking water and padding had been sterilized by high pressure sterilization. All operations related to mice were performed under sterile conditions. • (2) On day 0, approximately 1×10^6 MC38 cells (purchased from ATCC) were injected subcutaneously into the left back of each of the C57BL/6J mice, and approximately 1×10^6 4T1 cells (purchased from ATCC) were injected subcutaneously into the left back of each of the Balb/c mice. • (3) For the MC38 mouse model, starting from the 6th day, the corresponding mice were orally administered with methylcellulose (HKI) (purchased from China National Pharmaceutical Group Corporation) solvent once a day (5 mice); Compound 2 at a dose of 50 mg/kg mouse weight once a day (5 mice); PLX3397 at a dose of 50 mg/kg mouse weight once a day (5 mice). For the 4T1 mouse model, starting from the 6th day, the corresponding mice were orally administered with 10% HS-15 (purchased from BASF, Germany) solvent (5 mice); Compound 2 at a dose of 50 mg/kg mouse weight once a day (5 mice); PLX3397 at a dose of 50 mg/kg mouse weight once a day (5 mice). • (4) Starting from the 6th day, the length/width of the subcutaneous tumor was measured with a vernier caliper every day, and the weight of the mice was recorded every day to determine the effects of Compound 2 and control compound PLX3397 on the weight of mice in different model mice. The results are shown in FIGS. 3 and 6. • (5) The growth trends of subcutaneous tumors in mice of different models were statistically analyzed. The tumor volume was calculated using the following method: length×width×width/2 mm^3. The results are shown in FIGS. 4 and 7. • (6) Isolation of tumor-infiltrating lymphocytes: Tumor tissue was first minced (tissue block less than 1 mm^3) with a surgical blade, resuspended in 6 ml of digestion solution (collagenase IV and 0.005% DNaseI enzyme, both purchased from Sigma, USA), and the mixture was transferred to a 15-ml centrifuge tube. The centrifuge tube was then placed in a shaker at 37° C. and digested with shaking at 220 r/min for 2 hours. The cells were sieved through a 200-mesh sieve and collected in a 50-ml centrifuge tube, and centrifuged at 1500 rpm for 10 minutes. The supernatant was then discarded, and 10 ml of DMEM medium (10% FBS) (purchased from GIBCO, USA) was added to the tube to terminate the digestion. The tube was placed in a centrifuge, and centrifuged at 1500 rpm for another 10 minutes. The supernatant was discarded. At the same time, Percoll separation solution (purchased from Millipore, USA) was prepared, and 90% Percoll separation working solution was prepared using 10×PBS. To a 15 ml centrifuge tube, 3-4 ml of 70% Percoll separation solution was added. The cells were resuspended in 4 ml of 40% Percoll separation solution, and the cell mixture was added to the 70% Percoll separation solution. The centrifuge tube was placed in a centrifuge and subjected to density gradient centrifugation at 25° C., 1260 g, for 30 minutes (speed up 5, speed down 0). After the centrifugation, the centrifuge tube was placed on a centrifuge tube rack, the middle leukocyte layer was aspirated with a pipette, and added to 10 ml of PBS, they were mixed well and placed in a centrifuge, and centrifuged at 1500 rpm. The cell supernatant was discarded after 10 min and the cells were resuspended in 5 ml of PBS, centrifuged at 1500 rpm for another 10 min, and the washing process was repeated once. The cells obtained were leukocytes in the tumor tissue. […]

[3] = system: M-NSF-60; test: Proliferation of M-NSF-60 cells with M-CSF (CCK-8, 72 hours); assay type: cell-based, mouse; details: Mus musculus; M-CSF 50 ng/ml in medium, 72 hours incubation, CCK-8; read-out: M-NSF-60 (GI50/μM)
Experimental: (§3) The incubated cells were detected by CCK-8 (purchased from MedChem Express, China) cell viability detection kit (CCK-8 can be reduced by dehydrogenases in living cells to a highly water-soluble yellow formazan product, and the amount of the generated formazan product is proportional to the number of living cells). The number of living cells was quantified by a microplate reader, and the GI50 for each compound was calculated (the results are shown in Table 2).

[4] = system: MC38 cells; test: In vivo efficacy in MC38 cell tumor transplantation mouse model
Experimental: as §1, §2

[5] = target: T1, TEL-CSF1R-BaF3 (Homo sapiens, UniProt P07333); test: Proliferation of TEL-CSF1R-BaF3 cells (CCK-8, 72 hours); assay type: cell-based; details: 72 hours incubation, CCK-8
T1 construct: expressed in transfected cells; host or cells: mouse BaF3 cells (ATCC), retroviral transduction with MSCV-Puro vector, IL-3 withdrawn; the other entry of the earlier key: ETV6 (P41212, Transcription factor ETV6)
T1 sequence (P07333 582-910 limits assumed): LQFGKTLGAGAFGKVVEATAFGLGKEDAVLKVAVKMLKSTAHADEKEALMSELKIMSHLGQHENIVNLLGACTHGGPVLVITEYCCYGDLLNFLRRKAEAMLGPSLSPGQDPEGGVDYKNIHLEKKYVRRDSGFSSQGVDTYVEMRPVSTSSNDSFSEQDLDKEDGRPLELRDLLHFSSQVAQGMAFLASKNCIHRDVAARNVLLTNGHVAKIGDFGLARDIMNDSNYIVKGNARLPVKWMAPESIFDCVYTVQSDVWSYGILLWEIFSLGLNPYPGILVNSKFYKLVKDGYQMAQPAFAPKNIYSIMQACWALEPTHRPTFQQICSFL
Experimental: as §3
The construction method of the TEL-CSF1R-BaF3 cell line (a cell line stably expressing CSF1R kinase) was as follows: the sequence of human CSF1R kinase region was amplified by PCR and inserted into the MSCV-Puro vector (Clontech) with an N-terminal TEL fragment, and stably transferred into mouse BaF3 cells (purchased from ATCC, USA) by a retroviral method, and IL-3 growth factor was removed, finally a cell line dependent on CSF1R transferred protein was obtained.

[6] = 50 mg/kg oral once a day, as days of administration increased

COc1cc2nccc(Oc3ccc(NC(=O)Cc4ccc(Cl)c(C(F)(F)F)c4)cc3)c2cc1OC [Example 2, N-(4-((6,7-dimethoxyquinolin-4-yl)oxy)phenyl)-2-(4-chloro-3-(trifluoromethyl)phenyl)-acetamide]
effect on IL-10 secretion compared with positive controls ([1]; 1 μM, same dose as PLX3397 and BLZ945, FIG. 1): better for Compound 2 at 1 μM than positive controls PLX3397 and BLZ945
level of IL-10 secretion in M2 macrophages ([1]; RAW264.7 induced with IL-4 or IL-13, treated 72 hours, serial dilutions, FIG. 1): decreased in a dose-dependent manner
toxicity (mouse body weight) ([2]; 50 mg/kg oral once a day, FIG. 6): no obvious toxicity
inhibition effect of mouse tumors ([2]; 50 mg/kg oral once a day, FIG. 7): good inhibition effect of mouse tumors
inhibitory effect on mouse tumors compared with PLX3397 [2, 6]: superior to the effect of the control compound PLX3397
proportion of M1 macrophages around the tumor versus solvent group ([2]; 50 mg/kg oral, flow cytometry, FIG. 8): much higher than that in the solvent group
proportion of M1 macrophages in the tumor microenvironment versus PLX3397 group ([2]; same dose 50 mg/kg, FIG. 8): higher than that of the PLX3397 group
GI50 [3]: 0.03 µM
toxicity (mouse body weight) ([4]; 50 mg/kg oral once a day, FIG. 3): no obvious toxicity
inhibition effect of mouse tumors ([4]; 50 mg/kg oral once a day, FIG. 4): good inhibition effect of mouse tumors
inhibitory effect on mouse tumors compared with PLX3397 [4, 6]: superior to the effect of the control compound PLX3397
proportion of M1 macrophages around the tumor versus solvent group ([4]; 50 mg/kg oral, flow cytometry, FIG. 5): much higher than that in the solvent group
proportion of M1 macrophages in the tumor microenvironment versus PLX3397 group ([4]; same dose 50 mg/kg, FIG. 5): higher than that of the PLX3397 group
GI50 [5]: 0.003 µM
